Measurements published in PubChem BioAssay AID180 (DTP/NCI, 2004).
Values joined by “and” are separate entries in the source; they are usually repeats but may differ in a detail not shown here. Equal values may be shown once.

Test system: BDF1 mice, Adenocarcinoma 755 s.c., tumor weight T/C
Assay: NCI In Vivo Anticancer Drug Screen. Data for tumor model Adenocarcinoma 755 (subcutaneous) in B6D2F1 (BDF1) mice
Details: endpoint: mean tumor weight, higher = larger tumour
Outline: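 Values express treated (T) relative to vehicle-dosed control (C) animals, based on survival or tumour size measured after compound treatment of mice bearing a transplanted tumour.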

[1] = dose: 15.0 mg/kg/injection, schedule: Q01DX011 (ip), vehicle: methylcellulose (MC)
[2] = dose: 250.0 mg/kg/injection, schedule: Q01DX011 (ip), vehicle: saline
[3] = dose: 125.0 mg/kg/injection, schedule: Q01DX011 (ip), vehicle: methylcellulose (MC)

In the case of `C[C@@H]1C[C@@H]([C@H](O)CC2CC(=O)NC(=O)C2)C(=O)[C@@H](C)C1`, the T/C (dose: 5.0 mg/kg/injection, schedule: Q#A X022 (ip), vehicle: alkali diluted with saline) is reported as 103 % of control, the T/C (dose: 6.63 mg/kg/injection, schedule: Q01DX011 (ip), vehicle: carboxymethylcellulose (CMC)) is reported as 51 % of control and the T/C (dose: 7.5 mg/kg/injection, schedule: Q01DX011 (ip), vehicle: methylcellulose (MC)) is reported as 89 % of control. For the same compound, the T/C (dose: 8.63 mg/kg/injection, schedule: Q01DX011 (ip), vehicle: carboxymethylcellulose (CMC)) was 87 % of control, the T/C (dose: 9.5 mg/kg/injection, schedule: Q01DX011 (ip), vehicle: carboxymethylcellulose (CMC)) was 103 % of control and 117 % of control and the T/C (dose: 10.0 mg/kg/injection, schedule: Q01DX011 (im), vehicle: alkali diluted with saline) was 79 % of control. For the same compound, the T/C (dose: 10.0 mg/kg/injection, schedule: Q01DX011 (ip), vehicle: alkali diluted with saline) was 66 % of control and 75 % of control, the T/C (dose: 10.0 mg/kg/injection, schedule: Q01DX011 (oral), vehicle: alkali diluted with saline) was 62 % of control and the T/C (dose: 10.0 mg/kg/injection, schedule: Q01DX011 (sc), vehicle: steriod suspending solution) was 99 % of control. For the same compound, the T/C (dose: 10.0 mg/kg/injection, schedule: Q#A X022 (ip), vehicle: alkali diluted with saline) was 64 % of control, the T/C (dose: 12.5 mg/kg/injection, schedule: Q01DX011 (ip), vehicle: methylcellulose (MC)) was 71 % of control and the T/C (dose: 13.25 mg/kg/injection, schedule: Q01DX011 (ip), vehicle: carboxymethylcellulose (CMC)) was 120 % of control. For the same compound, the T/C (dose: 13.8 mg/kg/injection, schedule: Q01DX011 (ip), vehicle: carboxymethylcellulose (CMC)) was 38 % of control, the T/C [1] was 49 % of control and the T/C (dose: 17.25 mg/kg/injection, schedule: Q01DX011 (ip), vehicle: carboxymethylcellulose (CMC)) was 50 % of control and 65 % of control. The T/C (dose: 19.0 mg/kg/injection, schedule: Q01DX011 (ip), vehicle: carboxymethylcellulose (CMC)) was 56 % of control and 59 % of control, the T/C (dose: 20.0 mg/kg/injection, schedule: Q01DX006 (iv), vehicle: alkali diluted with saline) was 91 % of control and the T/C (dose: 20.0 mg/kg/injection, schedule: Q01DX011 (im), vehicle: alkali diluted with saline) was 76 % of control. The T/C (dose: 20.0 mg/kg/injection, schedule: Q01DX011 (oral), vehicle: alkali diluted with saline) was 63 % of control, the T/C (dose: 20.0 mg/kg/injection, schedule: Q01DX011 (sc), vehicle: steriod suspending solution) was 48 % of control and the T/C (dose: 23.0 mg/kg/injection, schedule: Q01DX011 (ip), vehicle: carboxymethylcellulose (CMC)) was 31 % of control. For the same compound, the T/C (dose: 25.0 mg/kg/injection, schedule: Q01DX011 (ip), vehicle: methylcellulose (MC)) was 47 % of control, the T/C (dose: 26.5 mg/kg/injection, schedule: Q01DX011 (ip), vehicle: carboxymethylcellulose (CMC)) was 50 % of control and the T/C (dose: 30.0 mg/kg/injection, schedule: Q01DX011 (ip), vehicle: methylcellulose (MC)) was 33 % of control. For the same compound, the T/C (dose: 30.0 mg/kg/injection, schedule: Q03DX004 (ip), vehicle: alkali diluted with saline) was 117 % of control, the T/C (dose: 34.5 mg/kg/injection, schedule: Q01DX011 (ip), vehicle: carboxymethylcellulose (CMC)) was 12 % of control and 13 % of control and the T/C (dose: 38.0 mg/kg/injection, schedule: Q01DX011 (ip), vehicle: carboxymethylcellulose (CMC)) was 27 % of control and 32 % of control. The T/C (dose: 40.0 mg/kg/injection, schedule: Q01DX006 (iv), vehicle: alkali diluted with saline) was 95 % of control and 76 % of control, the T/C (dose: 40.0 mg/kg/injection, schedule: Q01DX011 (oral), vehicle: alkali diluted with saline) was 18 % of control and 42 % of control and the T/C (dose: 40.0 mg/kg/injection, schedule: Q01DX011 (sc), vehicle: steriod suspending solution) was 48 % of control. For the same compound, the T/C (dose: 40.0 mg/kg/injection, schedule: Q#A X022 (ip), vehicle: alkali diluted with saline) was 22 % of control and 36 % of control, the T/C (dose: 50.0 mg/kg/injection, schedule: Q01DX001 (ip), vehicle: alkali diluted with saline) was 88 % of control and the T/C (dose: 50.0 mg/kg/injection, schedule: Q01DX011 (ip), vehicle: methylcellulose (MC)) was 13 % of control. The T/C (dose: 60.0 mg/kg/injection, schedule: Q01DX011 (ip), vehicle: methylcellulose (MC)) was 6 % of control, the T/C (dose: 60.0 mg/kg/injection, schedule: Q03DX004 (ip), vehicle: alkali diluted with saline) was 47 % of control and the T/C (dose: 80.0 mg/kg/injection, schedule: Q01DX006 (iv), vehicle: alkali diluted with saline) was 92 % of control and 93 % of control. The T/C (dose: 80.0 mg/kg/injection, schedule: Q01DX011 (im), vehicle: alkali diluted with saline) was 4 % of control and 9 % of control, the T/C (dose: 80.0 mg/kg/injection, schedule: Q01DX011 (ip), vehicle: alkali diluted with saline) was 9 % of control and 21 % of control and the T/C (dose: 100.0 mg/kg/injection, schedule: Q01DX001 (ip), vehicle: alkali diluted with saline) was 63 % of control. The T/C (dose: 120.0 mg/kg/injection, schedule: Q03DX004 (ip), vehicle: alkali diluted with saline) was 41 % of control, the T/C (dose: 160.0 mg/kg/injection, schedule: Q01DX006 (iv), vehicle: alkali diluted with saline) was 24 % of control and the T/C (dose: 200.0 mg/kg/injection, schedule: Q01DX001 (ip), vehicle: alkali diluted with saline) was 186 % of control. The T/C (dose: 400.0 mg/kg/injection, schedule: Q01DX001 (ip), vehicle: alkali diluted with saline) was 89 % of control.

For `O=[N+]([O-])c1ccc(-n2cnc3c(=S)nc[nH]c32)o1`, the T/C (dose: 0.2 mg/kg/injection, schedule: Q01DX011 (ip), vehicle: carboxymethylcellulose (CMC)) was 105 % of control, the T/C (dose: 0.4 mg/kg/injection, schedule: Q01DX011 (ip), vehicle: carboxymethylcellulose (CMC)) was 92 % of control and the T/C (dose: 0.8 mg/kg/injection, schedule: Q01DX011 (ip), vehicle: carboxymethylcellulose (CMC)) was 86 % of control. The T/C (dose: 1.6 mg/kg/injection, schedule: Q01DX011 (ip), vehicle: carboxymethylcellulose (CMC)) was 29 % of control and 44 % of control, the T/C (dose: 3.2 mg/kg/injection, schedule: Q01DX011 (ip), vehicle: carboxymethylcellulose (CMC)) was 32 % of control and the T/C (dose: 6.3 mg/kg/injection, schedule: Q01DX011 (ip), vehicle: carboxymethylcellulose (CMC)) was 1 % of control.

With `CCCCCCCCSc1ncnc2c1ncn2CCCC` the T/C (dose: 93.0 mg/kg/injection, schedule: Q01DX011 (ip), vehicle: saline) was 92 % of control, the T/C [2] was 97 % of control and the T/C (dose: 375.0 mg/kg/injection, schedule: Q01DX011 (ip), vehicle: saline) was 77 % of control.

In the case of `Nc1nc(Cl)cc(Nc2ccc(CCO)cc2)n1`, the T/C [1] is reported as 101 % of control, the T/C (dose: 62.0 mg/kg/injection, schedule: Q01DX011 (ip), vehicle: methylcellulose (MC)) is reported as 77 % of control and the T/C [3] is reported as 102 % of control.

`Cc1cccc(Nc2c(N)nc(N)nc2N)c1` was tested, and the T/C (dose: 11.0 mg/kg/injection, schedule: Q01DX011 (ip), vehicle: carboxymethylcellulose (CMC)) was 50 % of control, the T/C (dose: 22.0 mg/kg/injection, schedule: Q01DX011 (ip), vehicle: carboxymethylcellulose (CMC)) was 61 % of control and the T/C (dose: 44.0 mg/kg/injection, schedule: Q01DX011 (ip), vehicle: carboxymethylcellulose (CMC)) was 32 % of control. For the same compound, the T/C (dose: 88.0 mg/kg/injection, schedule: Q01DX011 (ip), vehicle: carboxymethylcellulose (CMC)) was 48 % of control.

In the case of `CC(Cl)CN(Cc1cc(O)c(CN(CC(C)Cl)CC(C)Cl)cc1O)CC(C)Cl` (centres undefined), the T/C [3] is reported as 58 % of control.

For `O=c1[nH]c(=O)c2[nH]c(N=Nc3ccc(N(CCCl)CCCl)cc3)nc2[nH]1`, the T/C (dose: 25.0 mg/kg/injection, schedule: Q01DX011 (ip), vehicle: saline) was 74 % of control, the T/C (dose: 50.0 mg/kg/injection, schedule: Q01DX011 (ip), vehicle: saline) was 56 % of control and the T/C (dose: 100.0 mg/kg/injection, schedule: Q01DX011 (ip), vehicle: saline) was 6 % of control and 19 % of control.

With `CCCCN(C)N=Nc1ccc(CCC(=O)OCC)cc1` the T/C (dose: 62.5 mg/kg/injection, schedule: Q01DX011 (ip), vehicle: saline) was 95 % of control, the T/C (dose: 125.0 mg/kg/injection, schedule: Q01DX011 (ip), vehicle: saline) was 38 % of control and the T/C [2] was 80 % of control.

`Cn1c(N)c(N=O)c(=O)n(C)c1=O` was tested, and the T/C (dose: 175.0 mg/kg/injection, schedule: Q01DX011 (oral), vehicle: other) was 99 % of control, the T/C (dose: 250.0 mg/kg/injection, schedule: Q01DX011 (ip), vehicle: carboxymethylcellulose (CMC)) was 81 % of control and the T/C (dose: 350.0 mg/kg/injection, schedule: Q01DX011 (ip), vehicle: carboxymethylcellulose (CMC)) was 28 % of control. The T/C (dose: 350.0 mg/kg/injection, schedule: Q01DX011 (oral), vehicle: other) was 80 % of control, the T/C (dose: 1400.0 mg/kg/injection, schedule: Q01DX011 (oral), vehicle: methylcellulose (MC)) was 105 % of control and the T/C (dose: 2000.0 mg/kg/injection, schedule: Q01DX011 (oral), vehicle: other) was 74 % of control. The T/C (dose: 2800.0 mg/kg/injection, schedule: Q01DX011 (oral), vehicle: other) was 118 % of control.

With `CCc1c(CC(=O)O)c2cc(C)ccc2n1Cc1ccc(Cl)cc1` the T/C (dose: 20.0 mg/kg/injection, schedule: Q01DX011 (ip), vehicle: carboxymethylcellulose (CMC)) was 87 % of control, the T/C (dose: 40.0 mg/kg/injection, schedule: Q01DX011 (ip), vehicle: carboxymethylcellulose (CMC)) was 119 % of control and the T/C (dose: 80.0 mg/kg/injection, schedule: Q01DX011 (ip), vehicle: carboxymethylcellulose (CMC)) was 97 % of control. For the same compound, the T/C (dose: 100.0 mg/kg/injection, schedule: Q01DX011 (ip), vehicle: carboxymethylcellulose (CMC)) was 37 % of control.

For `CCCCn1cnc2c(SCc3ccccn3)nc(N)nc21`, the T/C (dose: 3.6 mg/kg/injection, schedule: Q01DX011 (ip), vehicle: methylcellulose (MC)) was 6 % of control and the T/C (dose: 7.25 mg/kg/injection, schedule: Q01DX011 (ip), vehicle: methylcellulose (MC)) was 2 % of control.
